The record followed here is ChEMBL document CHEMBL1150623, “Two new triterpene esters from the twigs of Brachylaena ramiflora from the Madagascar rainforest” (J Nat Prod, 2002).

As usually defined, the IC50 is the concentration needed to halve the response being measured.

SMILES strings stand for the structures. ≈ marks a conversion by molar mass, not a printed value. Numbered stars: 1 amine (or outer) side, 2 acyl side, 3 side chain; on linkers, the order of the positions; unused ones are H or OH. Bridge positions count the residues as written; N and C are the ends. Square brackets hold non-standard residues; d marks the D form. Peptide text beside a SMILES is read from it. I, II: the chains in the order shown. Actinocin(1to9) = Cc1c2oc3c(C)ccc(C(=O)[*:2])c3nc-2c(C(=O)[*:1])c(N)c1=O; NMeV = CN[C@H](C(=O)O)C(C)C; Sar = CNCC(=O)O

In the assay the test system is A2780. The assay is described as follows: Cytotoxicity against human A2780 cells. It is filed as functional, cell-based.
`CCCCCCCCCCCCCCCC(=O)O[C@H]1CC[C@]2(C)[C@H]3CC=C4[C@@H]5CCCC(C)(C)[C@@]5(C)CC[C@@]4(C)[C@]3(C)CC[C@H]2C1(C)C` [KAIRATENYL PALMITATE] registered a half-maximal inhibitory concentration (IC50) of 10 µg/mL (≈ 15 µM).
In turn, `C=C(C)[C@H]1CC[C@]2(C)C3CC[C@@H]4[C@@]5(C)CC[C@H](OC(=O)CCCCCCCCCCCCCCC)C(C)(C)[C@@H]5CC[C@@]4(C)[C@]3(C)CC[C@@H]12` (stereo partly drawn) [HOPENYL PALMITATE] returned an IC50 of 11.6 µg/mL (≈ 17.4 µM).
The compound `C=C(C)[C@@H]1CC[C@]2(C)CC[C@]3(C)[C@H](CC[C@@H]4[C@@]5(C)CC[C@H](O)C(C)(C)[C@@H]5CC[C@]43C)[C@@H]12` [LUPEOL] displayed an IC50 of 16.2 µg/mL (≈ 38 µM). This IC50 and that of the compound before are within 1.5-fold of each other.
The figure for `C=C(C)[C@@H]1CC[C@]2(C)CC[C@]3(C)[C@H](CC[C@@H]4[C@@]5(C)CC[C@H](OC(C)=O)C(C)(C)[C@@H]5CC[C@]43C)[C@@H]12` [LUPENYL ACETATE] is 15 µg/mL; for `CCCCCCCCCCCCCCCC(=O)O[C@H]1CC[C@]2(C)[C@H]3CC=C4[C@@H]5CC(C)(C)CC[C@]5(C)CC[C@@]4(C)[C@]3(C)CC[C@H]2C1(C)C` it is 13.4 µg/mL (≈ 20.1 µM).
The compound `CC(=O)O[C@H]1CC[C@]2(C)[C@H]3CC=C4[C@@H]5CC(C)(C)CC[C@]5(C)CC[C@@]4(C)[C@]3(C)CC[C@H]2C1(C)C` [beta-AMYRIN ACETATE] displayed a half-maximal inhibitory concentration (IC50) of 12.1 µg/mL.
Compound `CCCCCCCCCCCCCCCC(=O)O[C@H]1CC[C@]2(C)[C@H]3CC=C4[C@@H]5[C@@H](C)[C@H](C)CC[C@@]5(C)CC[C@@]4(C)[C@]3(C)CC[C@H]2C1(C)C` yielded an IC50 of 15.4 µg/mL (≈ 23.2 µM).
Regarding `Cc1c2oc3c(C)ccc(C(=O)N[C@@H]4C(=O)N[C@H](C(C)C)C(=O)N5CCC[C@H]5C(=O)N(C)CC(=O)N(C)[C@@H](C(C)C)C(=O)O[C@@H]4C)c3nc-2c(C(=O)N[C@@H]2C(=O)N[C@H](C(C)C)C(=O)N3CCC[C@H]3C(=O)N(C)CC(=O)N(C)[C@@H](C(C)C)C(=O)O[C@@H]2C)c(N)c1=O` [DACTINOMYCIN] (I: T[dV]P[Sar][NMeV] / II: T[dV]P[Sar][NMeV]; ester I:1-I:C, II:1-II:C; linker I:N-II:N via Actinocin(1to9)), half-maximal inhibition (IC50) was put at 0.002 µg/mL (≈ 0.00159 µM).
